Reference: US11142526B2, “Spirocycle compounds and methods of making and using same” (H. Lundbeck A/S, priority 2017, dated 2021)
Read-outs that look alike come from different tables or passages of the source.

What was measured:
MAGL [1] = target: T1, MAGL (Mus musculus (Mouse), UniProt O35678); assay: In vitro competitive activity-based protein profiling, mouse brain proteome; assay type: biochemical; conditions: for inhibition at 1 µM: mouse; for IC50: mouse brain
MAGL [2] = target: T1, MAGL; assay: Mouse brain proteomes from inhibitor treated mice (oral gavage, brain MAGL activity 4 h after administration); assay type: in vivo; conditions: 5 mg/kg oral gavage
Method: Preparation of Mouse Brain Proteomes from Inhibitor Treated Mice.
Inhibitors were administered to wild-type C57B1/6J by oral gavage in a vehicle of polyethylene glycol.

MAGL [3] = target: MAGL (Homo sapiens (Human), UniProt Q99685); assay: In vitro competitive activity-based protein profiling (gel-based, FP-Rh or HT-01 probe); assay type: biochemical
Method: In Vitro Competitive Activity-Based Protein Profiling.
Proteomes (human prefrontal cortex or cell membrane fractions) (50 μL, 1.0 mg/mL total protein concentration) were preincubated with varying concentrations of inhibitors at 37° C. After 30 min, FP-Rh or HT-01 (1.0 μL, 50 μM in DMSO) was added and the mixture was incubated for another 30 min at room temperature. Reactions were quenched with SDS loading buffer (15 μL—4×) and run on SDS-PAGE.

[4] = human PC3, read-out: MAGL % Inhibition at 1 μM (human PC3)
[5] = human PFC (prefrontal cortex), read-out: MAGL % Inhibition at 1 μM (human PFC)
[6] = human PC3, read-out: MAGL Human PC3 (IC50)

MAGL (Homo sapiens (Human), UniProt Q99685), sequence (Q99685 whole entry): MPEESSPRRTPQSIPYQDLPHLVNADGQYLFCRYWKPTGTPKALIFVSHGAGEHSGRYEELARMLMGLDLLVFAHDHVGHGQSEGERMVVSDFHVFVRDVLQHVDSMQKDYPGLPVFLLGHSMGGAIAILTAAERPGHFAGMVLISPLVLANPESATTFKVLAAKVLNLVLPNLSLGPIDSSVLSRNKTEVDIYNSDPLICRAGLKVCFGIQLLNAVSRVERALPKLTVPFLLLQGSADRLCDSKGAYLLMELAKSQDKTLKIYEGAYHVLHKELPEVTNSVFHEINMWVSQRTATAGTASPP
T1 sequence (O35678 whole entry): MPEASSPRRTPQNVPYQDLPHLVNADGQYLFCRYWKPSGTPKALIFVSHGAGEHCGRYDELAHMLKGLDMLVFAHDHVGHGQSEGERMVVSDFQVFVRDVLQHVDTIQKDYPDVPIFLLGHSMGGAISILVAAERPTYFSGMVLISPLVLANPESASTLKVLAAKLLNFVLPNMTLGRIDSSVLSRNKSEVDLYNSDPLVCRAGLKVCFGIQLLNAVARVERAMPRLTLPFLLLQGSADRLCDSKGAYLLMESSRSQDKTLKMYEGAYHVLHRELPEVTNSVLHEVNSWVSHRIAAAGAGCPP

| Compound | inhibition at 1 µM (MAGL [1]) | IC50 (MAGL [1]) | inhibition at 1 µM (MAGL [3]; [4]) | inhibition at 1 µM (MAGL [3]; [5]) | IC50 (MAGL [3]; [6]) | IC50 (MAGL [3]; human PFC (prefrontal cortex), read-out: MAGL Human PFC (IC50)) | MAGL % Inhibition at 5 mg/kg (Mouse) (MAGL [2]) |
| --- | --- | --- | --- | --- | --- | --- | --- |
| Cc1c(CN2CCCC23CCN(C(=O)OC(C(F)(F)F)C(F)(F)F)CC3)sc2ccccc12 [Example 43, 1,1,1,3,3,3-Hexafluoropropan-2-yl 1-((3-methylbenzo[b]thiophen-2-yl)methyl)-1,8-diazaspiro[4.5] decane-8-carboxylate] |  | < 100 nM |  |  |  |  | ### (% inhibition is greater than or equal to 75%) |
| CC(C)c1cc(CN2CCC3(CCN(C(=O)OC(C(F)(F)F)C(F)(F)F)CC3)C2)n(C2CCOCC2)n1 [Example 214, 1,1,1,3,3,3-Hexafluoropropan-2-yl 2-((3-isopropyl-1-(tetrahydro-2H-pyran-4-yl)-1H-pyrazol-5-yl)methyl)-2,8-diazaspiro[4.5]decane-8-carboxylate] | > 75% | < 100 nM |  |  |  |  | ### (% inhibition is greater than or equal to 75%) |
| CC(C)n1cc(CN2CCC3(CCN(C(=O)OC(C(F)(F)F)C(F)(F)F)CC3)C2)c(-c2cccc(Cl)c2)n1 [Example 218, 1,1,1,3,3,3-Hexafluoropropan-2-yl 2-((3-(3-chlorophenyl)-1-isopropyl-1H-pyrazol-4-yl)methyl)-2,8-diazaspiro[4.5]decane-8-carboxylate] | > 75% | < 100 nM |  |  |  |  | ### (% inhibition is greater than or equal to 75%) |
| O=C(OC(C(F)(F)F)C(F)(F)F)N1CCC2(CCCN2C(=O)C2(c3ccnc(C4CC4)n3)CC2)CC1 [Example 201, 1,1,1,3,3,3-Hexafluoropropan-2-yl 1-(1-(2-cyclopropylpyrimidin-4-yl)cyclopropane-1-carbonyl)-1,8-diazaspiro [4.5]decane-8-carboxylate] | > 75% |  | > 75% | > 75% | < 100 nM |  |  |
| CC1(NC(=O)c2cn3c(n2)CN(c2cnccn2)CC3)CCN(C(=O)OC(C(F)(F)F)C(F)(F)F)CC1 [Example 29, 1,1,1,3,3,3-Hexafluoropropan-2-yl 4-methyl-4-(7-(pyrazin-2-yl)-5,6,7,8-tetrahydroimidazo[1,2-a]pyrazine-2-carboxamido)piperidine-1-carboxylate] | > 75% |  | > 75% |  |  |  |  |
| CC1(NC(=O)c2cn3c(n2)CN(c2ncco2)CC3)CCN(C(=O)OC(C(F)(F)F)C(F)(F)F)CC1 [Example 28, 1,1,1,3,3,3-Hexafluoropropan-2-yl 4-methyl-4-(7-(oxazol-2-yl)-5,6,7,8-tetrahydroimidazo[1,2-a]pyrazine-2-carboxamido)piperidine-1-carboxylate] | > 75% |  | > 75% |  |  |  |  |
| Cc1cc(C)n2nc(C)c(C(=O)N3CCCC34CCN(C(=O)OC(C(F)(F)F)C(F)(F)F)CC4)c2n1 [Example 172, 1,1,1,3,3,3-Hexafluoropropan-2-yl 1-(2,5,7-trimethylpyrazolo [1,5-a]pyrimidine-3-carbonyl)-1,8-diazaspiro[4.5] decane-8-carboxylate] | > 75% |  | > 75% | > 75% | < 100 nM |  |  |
| O=C(OC(C(F)(F)F)C(F)(F)F)N1CCC2(CCCN2C(=O)C(F)(F)c2ncc(F)cn2)CC1 [Example 196, 1,1,1,3,3,3-Hexafluoropropan-2-yl 1-(2,2-difluoro-2-(5-fluoropyrimidin-2-yl)acetyl)-1,8-diazaspiro [4.5]decane-8-carboxylate] | > 75% |  | > 75% | > 75% |  |  |  |
| O=C(OC(C(F)(F)F)C(F)(F)F)N1CCC2(CCCN2C(=O)c2cc3nccc(C(F)(F)F)n3n2)CC1 [Example 164, 1,1,1,3,3,3-Hexafluoropropan-2-yl 1-(7-(trifluoromethyl)pyrazolo[1,5-a]pyrimidine-2-carbonyl)-1,8-diazaspiro[4.5] decane-8-carboxylate] | > 75% |  | > 75% | > 75% |  |  |  |
| CCC(C)(C)C(=O)N1CCn2cc(C(=O)NC3(C)CCN(C(=O)OC(C(F)(F)F)C(F)(F)F)CC3)nc2C1 [Example 193, 1,1,1,3,3,3-Hexafluoropropan-2-yl 4-(7-(2,2-dimethylbutanoyl)-5,6,7,8-tetrahydroimidazo[1,2-a]pyrazine-2-carboxamido)-4-methylpiperidine-1-carboxylate] | > 75% |  | > 75% |  | < 100 nM |  |  |
| CC(C)N1CCn2c(nnc2C(=O)NC2(C)CCN(C(=O)OC(C(F)(F)F)C(F)(F)F)CC2)C1 [Example 36, 1,1,1,3,3,3-Hexafluoropropan-2-yl 4-(7-isopropyl-5,6,7,8-tetrahydro-[1,2,4]triazolo[4,3-a]pyrazine-3-carboxamido)-4-methylpiperidine-1-carboxylate] | > 75% |  | > 75% | > 75% | < 100 nM |  |  |
| O=C(O)C1CCN(c2ncccc2CN2CCCC23CCN(C(=O)OC(C(F)(F)F)C(F)(F)F)CC3)CC1 [Example 124, 1-(3-((8-(((1,1,1,3,3,3-HexafIuoropropan-2-yl)oxy)carbonyl)-1,8-diazaspiro[4.5]decan-1-yl)methyl)pyridin-2-yl)piperidine-4-carboxylic acid] | > 75% |  |  | 25 to 75% |  |  |  |

Second part, led by results:

| inhibition at 1 µM (MAGL [1]) | IC50 (MAGL [1]) | inhibition at 1 µM (MAGL [3]; [4]) | inhibition at 1 µM (MAGL [3]; [5]) | IC50 (MAGL [3]; [6]) | IC50 (MAGL [3]; human PFC (prefrontal cortex), read-out: MAGL Human PFC (IC50)) | Compound | MAGL % Inhibition at 5 mg/kg (Mouse) (MAGL [2]) |
| --- | --- | --- | --- | --- | --- | --- | --- |
| > 75% | < 100 nM |  |  |  |  | O=C(OC(C(F)(F)F)C(F)(F)F)N1CCC2(CCCN2C(=O)c2cc3cc(Cl)ccc3[nH]2)CC1 [Example 93, 1,1,1,3,3.3-Hexafluoropropan-2-yl 1-(5-chloro-1H-indole-2-carbonyl)-1,8-diazaspiro[4.5] decane-8-carboxylate] | ### (% inhibition is greater than or equal to 75%) |
| > 75% | < 100 nM |  |  |  |  | O=C(OC(C(F)(F)F)C(F)(F)F)N1CCC2(CCCN2Cc2ccc3ccccc3n2)CC1 [Example 54, 1,1,1,3,3,3-Hexafluoropropan-2-yl 1-(quinolin-2-ylmethyl)-1,8-diazaspiro [4.5]decane-8-carboxylate] | ### (% inhibition is greater than or equal to 75%) |
| > 75% |  | > 75% | > 75% | < 100 nM |  | O=C(OC(C(F)(F)F)C(F)(F)F)N1CCC2(CCCN2C(=O)c2cnn3c2NCCC3)CC1 [Example 147, 1.1,1,3,3,3-Hexafluoropropan-2-yl 1-(4,5,6,7-tetrahydropyrazolo [1,5-a]pyrimidine-3-carbonyl)-1,8-diazaspiro[4.5] decane-8-carboxylate] |  |
| > 75% | < 100 nM |  |  | < 100 nM |  | O=C(OC(C(F)(F)F)C(F)(F)F)N1CCC2(CCCN2C(=O)c2cn3ccccc3n2)CC1 [Example 69, 1,1,1,3,3,3-Hexafluoropropan-2-yl 1-(imidazo[1,2-a]pyridine-2-carbonyl)-1,8-diazaspiro[4.5] decane-8-carboxylate] |  |
| > 75% |  |  | > 75% | < 100 nM |  | Cc1c(C(=O)N2CCCC23CCN(C(=O)OC(C(F)(F)F)C(F)(F)F)CC3)c(Cl)nn1C [Example 125, 1,1,1,3,3,3-Hexafluoropropan-2-yl 1-(3-chloro-1,5-dimethyl-1H-pyrazole-4-carbonyl)-1,8-diazaspiro[4.5] decane-8-carboxylate] |  |
| > 75% | < 100 nM |  |  | < 100 nM |  | O=C(OC(C(F)(F)F)C(F)(F)F)N1CCC2(CCCN2C(=O)c2ccc3ocnc3c2)CC1 [Example 87, 1,1,1,3,3.3-Hexafluoropropan-2-yl 1-(benzo[d]oxazole-5-carbonyl)-1,8-diazaspiro[4.5] decane-8-carboxylate] |  |
| < 25% |  |  | 25 to 75% |  |  | Cc1ncncc1C(=O)N1CCCC12CCN(C(=O)OC(C(F)(F)F)C(F)(F)F)CC2 [Example 127, 1,1,1,3,3,3-Hexafluoropropan-2-yl 1-(4-methyl-pyrimidine-5-carbonyl)-1,8-diazaspiro[4.5] decane-8-carboxylate] |  |
| > 75% | < 100 nM |  |  | < 100 nM |  | O=C(OC(C(F)(F)F)C(F)(F)F)N1CCC2(CCCN2C(=O)c2cnn(Cc3ccccc3)c2)CC1 [Example 88, 1,1,1,3,3,3-Hexafluoropropan-2-yl 1-(1-benzyl-1H-pyrazole-4-carbonyl)-1,8-diazaspiro[4.5] decane-8-carboxylate] |  |
| > 75% |  | > 75% |  |  |  | O=C(OC(C(F)(F)F)C(F)(F)F)N1CCC2(CCCN2C(=O)c2cn3nc(Cl)ccc3n2)CC1 [Example 163, 1,1,1,3,3,3-Hexafluoropropan-2-yl 1-(6-chloroimidazo[1,2-b]pyridazine-2-carbonyl)-1,8-diazaspiro[4.5] decane-8-carboxylate] |  |
| 25 to 75% |  | > 75% | > 75% |  |  | Cn1cc(CN2CCCC23CCN(C(=O)OC(C(F)(F)F)C(F)(F)F)CC3)cn1 [Example 175, 1,1,1,3,3,3-Hexafluoropropan-2-yl 1-((1-methyl-1H-pyrazol-4-yl)methyl)-1,8-diazaspiro[4.5] decane-8-carboxylate] |  |
| > 75% |  |  | > 75% |  | < 100 nM | Cc1ccc2sc(C(=O)N3CCCC34CCN(C(=O)OC(C(F)(F)F)C(F)(F)F)CC4)cc2c1 [Example 17, 1,1,1,3,3,3-Hexafluoropropan-2-yl 1-(5-methylbenzo[b]thiophene-2-carbonyl)-1,8-diazaspiro[4.5]decane-8-carboxylate] |  |
